{
  "source": "patent EP1295874A2",
  "about": "“Retroviral protease inhibiting compounds” (Abbott Laboratories, priority 1995, dated 1997)",
  "assay_in_all_cases": "microbe, parasite or virus in culture",
  "assay_type_in_all_cases": "cell-based",
  "key": {"[1]": {"test_system": "Ritonavir-Resistant HIV from Patients"}, "[2]": {"test_system": "HIV Selected In Vitro by the Compound of Example 2B"}, "[3]": {"test_system": "Ritonavir-Resistant Mutant HIV Clones"}},
  "data": [
    {"smiles": "CC(C)c1nc(CN(C)C(=O)N[C@H](C(=O)N[C@@H](Cc2ccccc2)C[C@H](O)[C@H](Cc2ccccc2)NC(=O)OCc2cncs2)C(C)C)cs1", "note": "[Ritonavir]", "values": [
      {"measurement": "EC50", "setting": "[1]; Human immunodeficiency virus 1, 24 h, Patient No. 313, Day 1, baseline", "value": 12, "unit": "nM"},
      {"measurement": "EC50", "setting": "[1]; Human immunodeficiency virus 1, 24 h, Patient No. 410, Day 1, baseline", "value": 29, "unit": "nM"},
      {"measurement": "EC50", "setting": "[1]; Human immunodeficiency virus 1, 504 h, Patient No. 104, Day 21, V82A", "value": 46, "unit": "nM"},
      {"measurement": "EC50", "setting": "[1]; Human immunodeficiency virus 1, 672 h, Patient No. 104, Day 28, V82T", "value": 67, "unit": "nM"},
      {"measurement": "EC50", "setting": "[1]; Human immunodeficiency virus 1, Patient No. 104, Day -1, baseline", "value": 21, "unit": "nM"},
      {"measurement": "EC50", "setting": "[1]; Human immunodeficiency virus 1, Patient No. 129, Day 84, M36I, I54V, A71V, V82T", "value": 203, "unit": "nM"},
      {"measurement": "EC50", "setting": "[1]; Human immunodeficiency virus 1, Patient No. 129, Day 140, K20K/R, M36M/I, I54V, A71A/V, V82T", "value": 677, "unit": "nM"},
      {"measurement": "EC50", "setting": "[1]; Human immunodeficiency virus 1, Patient No. 129, Day -1, baseline", "value": 24, "unit": "nM"},
      {"measurement": "EC50", "setting": "[1]; Human immunodeficiency virus 1, Patient No. 131, Day 88, M36I, 154V>I, V82A", "value": 163, "unit": "nM"},
      {"measurement": "EC50", "setting": "[1]; Human immunodeficiency virus 1, Patient No. 131, Day 200, K20K/R, M36I, I54I/V, V82A", "value": 731, "unit": "nM"},
      {"measurement": "EC50", "setting": "[1]; Human immunodeficiency virus 1, Patient No. 131, Day -28, baseline", "value": 18, "unit": "nM"},
      {"measurement": "EC50", "setting": "[1]; Human immunodeficiency virus 1, Patient No. 224, Day 110, L33L/F, V82T/S", "value": 79, "unit": "nM"},
      {"measurement": "EC50", "setting": "[1]; Human immunodeficiency virus 1, Patient No. 224, Day 190, K20K/N/R, L33L/F, M36M/I, I54V/M, V82S", "value": 496, "unit": "nM"},
      {"measurement": "EC50", "setting": "[1]; Human immunodeficiency virus 1, Patient No. 224, Day -6, baseline", "value": 29, "unit": "nM"},
      {"measurement": "EC50", "setting": "[1]; Human immunodeficiency virus 1, Patient No. 235, Day 167, I54I/V, A71V, V82A. L90L/M", "value": 66, "unit": "nM"},
      {"measurement": "EC50", "setting": "[1]; Human immunodeficiency virus 1, Patient No. 235, Day -1, baseline", "value": 10, "unit": "nM"},
      {"measurement": "EC50", "setting": "[1]; Human immunodeficiency virus 1, Patient No. 313, Day 57, M36M/I, V82F", "value": 64, "unit": "nM"},
      {"measurement": "EC50", "setting": "[1]; Human immunodeficiency virus 1, Patient No. 313, Day 85, M36M/I, I54I/V, V82S/F/A/T", "value": 274, "unit": "nM"},
      {"measurement": "EC50", "setting": "[1]; Human immunodeficiency virus 1, Patient No. 410, Day 57, M36M/I, I54I/V, V82A", "value": 341, "unit": "nM"},
      {"measurement": "EC50", "setting": "[1]; Human immunodeficiency virus 1, Patient No. 410, Day 85, M36I, I54V, V82A", "value": 545, "unit": "nM"},
      {"measurement": "EC50", "setting": "[2]; Human immunodeficiency virus 1, NL43, Virus NL4-3", "value": 98, "unit": "nM"},
      {"measurement": "EC50", "setting": "[2]; Human immunodeficiency virus 1, Virus P7", "value": 221, "unit": "nM"},
      {"measurement": "EC50", "setting": "[2]; Human immunodeficiency virus 1, Virus P11", "value": 478, "unit": "nM"},
      {"measurement": "EC50", "setting": "[2]; Human immunodeficiency virus 1, Virus P14", "value": 1740, "unit": "nM"},
      {"measurement": "EC50", "setting": "[2]; Human immunodeficiency virus 1, Virus P17", "value": 2090, "unit": "nM"},
      {"measurement": "cross-resistance (fold)", "setting": "[2]; passaged virus P14, P17", "value": "18-20 fold"},
      {"measurement": "EC50", "setting": "[3]; Human immunodeficiency virus 1, HXB2, Virus Clone Wild Type (HXB2), 0% Human Serum", "value": 64, "unit": "nM"},
      {"measurement": "EC50", "setting": "[3]; Human immunodeficiency virus 1, HXB2, Virus Clone Wild Type (HXB2), 50% Human Serum", "value": 1050, "unit": "nM"},
      {"measurement": "EC50", "setting": "[3]; Human immunodeficiency virus 1, Virus Clone E35D, M36I, I54V, A71V, V82T, 0% Human Serum", "value": 1170, "unit": "nM"},
      {"measurement": "EC50", "setting": "[3]; Human immunodeficiency virus 1, Virus Clone E35D, M36I, I54V, A71V, V82T, 50% Human Serum", "value": 21900, "unit": "nM"},
      {"measurement": "EC50", "setting": "[3]; Human immunodeficiency virus 1, Virus Clone G48V, 0% Human Serum", "value": 111, "unit": "nM"},
      {"measurement": "EC50", "setting": "[3]; Human immunodeficiency virus 1, Virus Clone G48V, 50% Human Serum", "value": 1710, "unit": "nM"},
      {"measurement": "EC50", "setting": "[3]; Human immunodeficiency virus 1, Virus Clone I54V, V82T, 0% Human Serum", "value": 613, "unit": "nM"},
      {"measurement": "EC50", "setting": "[3]; Human immunodeficiency virus 1, Virus Clone I54V, V82T, 50% Human Serum", "value": 16700, "unit": "nM"},
      {"measurement": "EC50", "setting": "[3]; Human immunodeficiency virus 1, Virus Clone I84V, 0% Human Serum", "value": 141, "unit": "nM"},
      {"measurement": "EC50", "setting": "[3]; Human immunodeficiency virus 1, Virus Clone I84V, 50% Human Serum", "value": 2720, "unit": "nM"},
      {"measurement": "EC50", "setting": "[3]; Human immunodeficiency virus 1, Virus Clone K20R, E35D, M36I, I54V, A71V, V82T, 0% Human Serum", "value": 1420, "unit": "nM"},
      {"measurement": "EC50", "setting": "[3]; Human immunodeficiency virus 1, Virus Clone K20R, E35D, M36I, I54V, A71V, V82T, 50% Human Serum", "value": 16000, "unit": "nM"},
      {"measurement": "EC50", "setting": "[3]; Human immunodeficiency virus 1, Virus Clone L90M, 0% Human Serum", "value": 93, "unit": "nM"},
      {"measurement": "EC50", "setting": "[3]; Human immunodeficiency virus 1, Virus Clone L90M, 50% Human Serum", "value": 2280, "unit": "nM"},
      {"measurement": "EC50", "setting": "[3]; Human immunodeficiency virus 1, Virus Clone V82A, 0% Human Serum", "value": 144, "unit": "nM"},
      {"measurement": "EC50", "setting": "[3]; Human immunodeficiency virus 1, Virus Clone V82A, 50% Human Serum", "value": 4080, "unit": "nM"},
      {"measurement": "EC50", "setting": "[3]; Human immunodeficiency virus 1, Virus Clone V82F, 0% Human Serum", "value": 146, "unit": "nM"},
      {"measurement": "EC50", "setting": "[3]; Human immunodeficiency virus 1, Virus Clone V82F, 50% Human Serum", "value": 3600, "unit": "nM"},
      {"measurement": "EC50", "setting": "[3]; Human immunodeficiency virus 1, Virus Clone V82S, 0% Human Serum", "value": 304, "unit": "nM"},
      {"measurement": "EC50", "setting": "[3]; Human immunodeficiency virus 1, Virus Clone V82S, 50% Human Serum", "value": 9220, "unit": "nM"},
      {"measurement": "EC50", "setting": "[3]; Human immunodeficiency virus 1, Virus Clone V82T, 0% Human Serum", "value": 146, "unit": "nM"},
      {"measurement": "EC50", "setting": "[3]; Human immunodeficiency virus 1, Virus Clone V82T, 50% Human Serum", "value": 5640, "unit": "nM"},
      {"measurement": "EC50", "setting": "[3]; Human immunodeficiency virus 1, Virus Clone Wild Type (pNL4-3), 0% Human Serum", "value": 71, "unit": "nM"},
      {"measurement": "EC50", "setting": "[3]; Human immunodeficiency virus 1, Virus Clone Wild Type (pNL4-3), 50% Human Serum", "value": 1400, "unit": "nM"}
    ]}
  ]
}
